Where “and” joins values, the source holds several entries; their conditions need not be identical. Equal values may be shown once.
Tests used:
15-PGDH = target: T1, 15-PGDH (Homo sapiens, UniProt P15428); experiment: A549 cell based assay: PGE2 in supernatant after IL-1β (HTRF); conditions: A549 cells, fold induction of PGE2, IL-1β plus test article versus IL-1β only
T1 construct: 15-PGDH is highly expressed in resting human lung adenocarcinoma cells (A549); endogenous in cells; host or cells: A549
T1 sequence (P15428 1-266): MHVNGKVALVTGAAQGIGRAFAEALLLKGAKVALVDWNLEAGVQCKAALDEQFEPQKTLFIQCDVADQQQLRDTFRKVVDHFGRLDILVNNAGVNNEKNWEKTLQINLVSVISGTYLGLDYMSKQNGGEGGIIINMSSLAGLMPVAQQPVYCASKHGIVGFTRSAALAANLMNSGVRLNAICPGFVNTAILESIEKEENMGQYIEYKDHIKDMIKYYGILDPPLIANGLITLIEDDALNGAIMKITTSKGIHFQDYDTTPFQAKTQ
Experimental: Cell Based Assay: 15-PGDH is highly expressed in resting human lung adenocarcinoma cells (A549) (Tong et al., 2006), and this cell line was used to assess 15-PGDH inhibition by MF-300Na in vitro.
In this assay, A549 cells are treated with interleukin (IL) 1β, which induces the expression of cycloxygenase-2 and the synthesis of PGE2 (Tong et al., 2006). In the studies evaluating test articles, thirty thousand A549 cells were seeded in 100 μL F12K completed media and incubated for 24 hours at 37° C. with 5% CO2 before being serum-starved for 24 hours. On the day of the experiment, buffer was changed to complete medium, and cells were incubated for 30 minutes with compounds prior to the addition of IL-1β (final concentration of 0.1-0.25 ng/mL) overnight at 37° C. with 5% CO2. Each concentration was run in triplicate. […] The PGE2 in the supernatant was detected and quantified using a Cisbio HTRF technology (Homogeneous Time-Resolved Fluorescence) kit (62P2APEG-62P2APEH) according to the manufacturer's recommendations, quantifying the fold induction of PGE2 of cells treated with IL-1β plus test article, versus treatment with IL-1β only.

15-PGDH/HPGD = target: T2, 15-PGDH/HPGD (Homo sapiens, UniProt P15428); experiment: hPGDH inhibitor screening biochemical assay; conditions: 10 nM enzyme, 15 μM PGE2, 0.25 mM NAD, fluorescence ex/em 340/485 nm
T2 construct: purchased R&D System 5660-DH
T2 sequence (P15428 1-266): T1 sequence (P15428 1-266)
Outline: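 Recombinant human 15-PGDH (10 nM) was preincubated with compound for 10 min at 37° C in 50 mM Tris-HCl pH 7.5 with 0.01% Tween 20. Reaction with 15 μM PGE2 and 0.25 mM NAD+ ran 10 min at room temperature, read by fluorescence at ex/em 340/485 nm. IC50 was derived from 10-point curves, relative to 1% DMSO.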

Structure (SMILES)	PGE2 - HTRF over IL-β induction at 0.001 μM (15-PGDH)	PGE2 - HTRF over IL-β induction at 0.01 μM (15-PGDH)	PGE2 - HTRF over IL-β induction at 0.1 μM (15-PGDH)	PGE2 - HTRF over IL-β induction at 1 μM (15-PGDH)	IC50 (15-PGDH/HPGD) [nM]
CCC1CCCN(C(=O)c2cnc3c(ccn3-c3cncc(NC(=O)OC)c3)c2)C1 (stereo in doubt) [Compound B-70, methyl(S)-(5-(5-(3-ethylpiperidine-1-carbonyl)-1H-pyrrolo[2,3-b]pyridin-1-yl)pyridin-3-yl)carbamate]	3.59	4.44	4.8	4.34	< 100
O=C(c1cnc2c(ccn2-c2cccc(-c3nc[nH]n3)c2)c1)N1CCC(F)(F)CC1 [Compound B-36, (1-(3-(4H-1,2,4-triazol-3-yl)phenyl)-1H-pyrrolo[2,3-b]pyridin-5-yl)(4,4-difluoropiperidin-1-yl)methanone]	2.93	4.16	3.31	4.33	< 100
O=C(c1cnc2c(ccn2-c2ccc(-c3nnc(C4CC4)[nH]3)cc2)c1)N1CCC(F)(F)CC1 [Compound B-72]	2.17	3.03	3.96	3.96	< 100
O=C(c1cnc2c(ccn2-c2ccc(N3CCOC3=O)nc2)c1)N1CCC[C@H](C(F)(F)F)C1 [Compound B-80]	2.36	2.83	2.86	2.4	< 100
O=C(c1cnc2c(ccn2-c2ccc(N3CCOC3=O)nc2)c1)N1CCC[C@@H](C(F)(F)F)C1 [Compound B-81]	0.51	1.08	2.21	1.92	100 to 1000
COC(=O)Nc1cncc(-n2ccc3cc(C(=O)N4CCCC(F)(F)C4)cnc32)c1 [Compound B-82]	2.7	5.52	5.36	4.19	< 100
CCC1CCCN(C(=O)c2cnc3c(ccn3-c3cncc(NC(=O)OC)c3)c2)C1 (stereo not shown) [Compound B-83]	1.4	2.64	2.84	4.39	< 100
COC(=O)Nc1cncc(-n2ccc3cc(C(=O)N4CCCC(C(F)(F)F)C4)cnc32)c1 (stereo not shown) [Compound B-84]	1.94	3.38	4.02	5.76	< 100
CC(C)OC(=O)Nc1cncc(-n2ccc3cc(C(=O)N4CCC(F)(F)CC4)cnc32)c1 [Compound B-88]	2.14	3.77	3.25	4.67	< 100
CNc1nc2ccc(-n3ccc4cc(C(=O)N5CCC(F)(F)CC5)cnc43)cn2n1 [Compound B-89]	1.57	3.31	3	5.13	< 100
Cn1cc(C(=O)Nc2cncc(-n3ccc4cc(C(=O)N5CCC(F)(F)CC5)cnc43)c2)cn1 [Compound B-92]	–	2.91 and 2.33	4.01 and 3.89	3.56 and 3.92	< 100
CCOC(=O)Nc1cc(-n2ccc3cc(C(=O)N4CCC(F)(F)CC4)cnc32)cnc1C [Compound B-96]	0.77	1.54	3.22	5.19	< 100
CN(C)c1nc2ccc(-n3ccc4cc(C(=O)N5CCC(F)(F)CC5)cnc43)cn2n1 [Compound B-102]	0.95	1.08	3.09	5.02	100 to 1000
CCC1CCCN(C(=O)c2cnc3c(ccn3-c3ccc(N4CCOC4=O)nc3)c2)C1 (stereo not shown) [Compound B-113]	6.05	3.06	8.74	10.7	< 100
O=C(c1cnc2c(ccn2-c2ccc(N3CCOC3=O)nc2)c1)N1CCCC(C(F)(F)F)C1 (stereo not shown) [Compound B-114]	2.23	5.78	7.25	11.1	< 100
O=C(c1cnc2c(ccn2-c2ccc(-c3nc[nH]n3)s2)c1)N1CCC(F)(F)CC1 [Compound B-119]	1.01	1.2	2.87	3.06	–
Cc1nc2ccc(-n3ccc4cc(C(=O)N5CCC(F)(F)CC5)cnc43)cn2n1 [Compound B-120]	1.34	1.28	4.15	6.26	–
O=C(Nc1cncc(-n2ccc3cc(C(=O)N4CCC(F)(F)CC4)cnc32)c1)C1CCOCC1 [Compound B-232]	0.34	1.02	2.68	4.46	< 100
O=C(Nc1cncc(-n2ccc3cc(C(=O)N4CCC(F)(F)CC4)cnc32)c1)C1CCCC1 [Compound B-234]	0.70	4.01	4.06	3.42	< 100
O=C(Nc1cncc(-n2ccc3cc(C(=O)N4CCC(F)(F)CC4)cnc32)c1)C1CCC1 [Compound B-236]	1.63	3.57	6.46	8.32	< 100
